Laboratory results taken from BindingDB's records for patent US20250326769 (Nuvalent, 2025).
pKi: −log10 of the molar value.

Key:
[1] = biological target: ALK tyrosine kinase receptor [I1171N,D1203N] (UniProt Q9UM73, D1203N/I1171N); test: Biochemical Kinase Assay
Protocol: (§1) First, 250 nL of compound dissolved in DMSO (100-fold of the desired concentration) was dispensed into a 384-well plate. A 12.5 μL substrate solution containing ATP (2 mM) and fluorogenic phosphorylation substrate AQT0101 ([…] for ALK and ROS, AssayQuant) or AQT0104 (26 μM for TRKB, AssayQuant) in buffer (50 mM HEPES pH 7.5, […], 0.5 mM EGTA, 10 mM MgCl2) was added and mixed thoroughly. Then, a 12.5 μL kinase solution containing ALK (1.5 nM, Carna, 08-518), ALK I1171N/D1203N (4 nM, SignalChem, custom-made), ROS1 (0.6 nM, Carma, 08-163), ROS1-G2032R (0.5 nM, SignalChem, R14-121BG), or TRKB-wt (1.5 nM, SignalChem, N17-11G) kinase domains in buffer ([…] pH 7.5, 0.01% Brij-[…], 0.4 mg/mL BSA, 0.5 mM EGTA, and 10 mM MgCl2) was added and mixed thoroughly. The plate was sealed and read by SpectraMax Paradigm at λ=485 nm every 2 minutes for 120 minutes at 30° C. Initial rates of reaction (v) were calculated from the change in fluorescence intensity over time during the initial, linear portion of the reaction.

[2] = biological target: BDNF/NT-3 growth factors receptor (Homo sapiens, UniProt Q16620); test: Biochemical Kinase Assay
Sequence of BDNF/NT-3 growth factors receptor (Q16620 whole entry): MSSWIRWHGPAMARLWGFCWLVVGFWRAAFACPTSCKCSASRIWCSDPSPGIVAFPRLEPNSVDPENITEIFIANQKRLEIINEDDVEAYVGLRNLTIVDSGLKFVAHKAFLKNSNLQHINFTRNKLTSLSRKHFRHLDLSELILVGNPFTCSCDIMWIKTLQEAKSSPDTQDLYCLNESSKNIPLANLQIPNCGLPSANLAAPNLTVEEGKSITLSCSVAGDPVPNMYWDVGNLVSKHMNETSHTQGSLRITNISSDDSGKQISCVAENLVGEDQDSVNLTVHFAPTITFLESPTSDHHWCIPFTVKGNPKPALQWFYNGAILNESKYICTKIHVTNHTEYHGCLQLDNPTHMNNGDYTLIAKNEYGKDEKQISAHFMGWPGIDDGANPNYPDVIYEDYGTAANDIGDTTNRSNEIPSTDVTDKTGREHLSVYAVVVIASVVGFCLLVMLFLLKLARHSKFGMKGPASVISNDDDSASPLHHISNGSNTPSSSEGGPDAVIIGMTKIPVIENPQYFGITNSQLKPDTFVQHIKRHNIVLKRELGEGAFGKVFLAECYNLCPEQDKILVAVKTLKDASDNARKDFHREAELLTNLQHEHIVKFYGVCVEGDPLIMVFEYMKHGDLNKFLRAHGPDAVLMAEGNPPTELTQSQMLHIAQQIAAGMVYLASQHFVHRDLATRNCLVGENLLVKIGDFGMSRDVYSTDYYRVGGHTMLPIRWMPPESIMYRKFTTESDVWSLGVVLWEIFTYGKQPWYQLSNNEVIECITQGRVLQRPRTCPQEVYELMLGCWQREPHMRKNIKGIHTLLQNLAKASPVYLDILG
Protocol: as §1

Sequence of ALK tyrosine kinase receptor [I1171N,D1203N] (Q9UM73 19-1620 I1171N/D1203N limits assumed): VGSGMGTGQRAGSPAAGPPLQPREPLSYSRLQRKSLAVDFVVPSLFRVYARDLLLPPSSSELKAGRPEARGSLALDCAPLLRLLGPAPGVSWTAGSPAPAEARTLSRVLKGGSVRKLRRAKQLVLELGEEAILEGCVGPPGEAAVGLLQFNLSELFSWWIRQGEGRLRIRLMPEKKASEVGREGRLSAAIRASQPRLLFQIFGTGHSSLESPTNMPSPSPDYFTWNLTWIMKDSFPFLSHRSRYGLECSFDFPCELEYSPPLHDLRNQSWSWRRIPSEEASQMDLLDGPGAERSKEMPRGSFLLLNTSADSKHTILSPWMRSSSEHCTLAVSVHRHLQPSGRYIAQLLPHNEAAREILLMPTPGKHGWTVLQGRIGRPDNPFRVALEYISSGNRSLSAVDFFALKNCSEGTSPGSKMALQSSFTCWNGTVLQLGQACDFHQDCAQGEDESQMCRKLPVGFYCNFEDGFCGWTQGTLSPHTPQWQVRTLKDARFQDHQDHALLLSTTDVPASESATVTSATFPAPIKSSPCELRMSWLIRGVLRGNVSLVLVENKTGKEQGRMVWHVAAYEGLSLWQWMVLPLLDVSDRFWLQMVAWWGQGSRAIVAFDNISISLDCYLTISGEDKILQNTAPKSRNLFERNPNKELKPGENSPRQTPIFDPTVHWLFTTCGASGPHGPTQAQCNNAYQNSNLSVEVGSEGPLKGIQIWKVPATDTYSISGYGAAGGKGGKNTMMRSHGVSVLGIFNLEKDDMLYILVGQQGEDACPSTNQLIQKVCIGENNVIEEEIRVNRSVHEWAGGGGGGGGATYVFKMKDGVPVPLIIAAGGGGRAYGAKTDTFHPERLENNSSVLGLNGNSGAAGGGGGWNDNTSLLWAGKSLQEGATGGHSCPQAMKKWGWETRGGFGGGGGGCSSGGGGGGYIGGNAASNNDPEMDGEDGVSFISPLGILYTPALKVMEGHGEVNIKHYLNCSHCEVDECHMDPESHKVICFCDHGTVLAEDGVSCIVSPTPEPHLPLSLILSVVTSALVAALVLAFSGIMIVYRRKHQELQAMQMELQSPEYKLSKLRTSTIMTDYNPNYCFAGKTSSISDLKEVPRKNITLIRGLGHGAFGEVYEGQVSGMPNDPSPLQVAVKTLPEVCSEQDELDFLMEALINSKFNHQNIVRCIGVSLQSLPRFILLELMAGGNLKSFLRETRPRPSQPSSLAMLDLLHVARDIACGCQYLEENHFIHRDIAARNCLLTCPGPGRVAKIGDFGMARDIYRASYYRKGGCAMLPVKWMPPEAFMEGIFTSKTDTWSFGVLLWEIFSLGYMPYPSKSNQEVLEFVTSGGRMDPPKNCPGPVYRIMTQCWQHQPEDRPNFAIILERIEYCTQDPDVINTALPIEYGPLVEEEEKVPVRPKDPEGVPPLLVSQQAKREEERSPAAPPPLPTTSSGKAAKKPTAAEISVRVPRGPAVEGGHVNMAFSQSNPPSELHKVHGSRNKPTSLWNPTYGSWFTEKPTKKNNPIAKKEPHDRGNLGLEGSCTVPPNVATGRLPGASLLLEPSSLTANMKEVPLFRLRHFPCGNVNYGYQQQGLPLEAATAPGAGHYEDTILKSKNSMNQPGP

Compound	pKi [1]	pKi [2]
CCN(C)C(=O)c1nn(CC2CC2)c2c1Cc1cn(C)nc1-c1ccc(F)cc1[C@@H](C)Oc1cc-2cnc1N [US20250326769, Example 38]	> 7.30	
CC(C)N(C)C(=O)c1nn(CC2CC2)c2c1Cc1cn(C)nc1-c1ccc(F)cc1[C@@H](C)Oc1cc-2cnc1N [US20250326769, Example 37]	> 7.30	< 6.30
CCn1ncc2c1-c1cnc(N)c(c1)O[C@H](C)c1cc(F)ccc1-c1ncccc1O2 [US20250326769, Example 14]	> 7.30	> 7.30
C[C@H]1Oc2cc(cnc2N)-c2c(c(C(N)=O)nn2CC2CC2)Cc2cccnc2-c2ccc(F)cc21 [US20250326769, Example 6]	> 7.30	
Cc1cc2n(n1)-c1c(F)cc(F)cc1[C@@H](C)Oc1cc(cnc1N)-c1c(c(C(=O)N(C)C)nn1CC1CC1)C2 [US20250326769, Example 44]	> 7.30	
